Measurements published in paper PMC5584945, “Evaluation of robenidine analog NCL195 as a novel broad-spectrum antibacterial agent” (PLoS ONE, 2017).
Where two headings read alike, the source gives them in different places.

Columns and labels:
Assay in all cases: MIC alone and checkerboard with EDTA or polymyxin B
Type in all cases: cell-based
[1] = test system: A. baumannii; details: for MIC: Acinetobacter baumannii, read-out: MIC, agent alone; for MIC of polymyxin B in combination with NCL195: with NCL195 0.5 μg/ml
Description: (§1) MICs for NCL812 and its analogs (serial two-fold dilutions commencing at 128 μg/ml) were determined (in duplicate) in round bottom 96-well microtitre trays (Sarstedt 82.1582.001), using the broth micro-dilution method recommended by the Clinical and Laboratory Standards Institute (CLSI). […] MIC50, MIC90 and MIC range for NCL812, NCL195 and NCL219 were calculated against each S. pneumoniae, S. aureus or VRE isolate. To assess the potential activity of NCL195 against Gram-negative bacteria, MICs against Acinetobacter spp, E. coli, K. pneumoniae, P. aeruginosa, Proteus spp and Neisseria meningitidis were performed in the presence or absence of 0.08 mM-20 mM EDTA in a standard checkerboard assay.

[2] = test system: K. pneumoniae; details: for MIC of EDTA in combination with NCL195: with NCL195 4 μg/ml; for MIC: Klebsiella pneumoniae, read-out: MIC, agent alone
Description: as §1

[3] = test system: E. coli; details: for MIC: Escherichia coli, read-out: MIC, agent alone; for MIC of polymyxin B in combination with NCL195: with NCL195 0.25 μg/ml
Description: as §1

[4] = test system: P. aeruginosa; details: for MIC: Pseudomonas aeruginosa, read-out: MIC, agent alone; for MIC of polymyxin B in combination with NCL195: with NCL195 1 μg/ml
Description: as §1

O=C(O)CN(CCN(CC(=O)O)CC(=O)O)CC(=O)O [EDTA, Ethylenediaminetetraacetic acid]
MIC of EDTA in combination with NCL195 ([1]; A. baumannii ATCC 12457, with NCL195 4 μg/ml): 250 µM | MIC of EDTA in combination with NCL195 ([1]; A. baumannii ATCC 19606, with NCL195 2 μg/ml): 500 µM | MIC ([1]; ATCC12457, A. baumannii ATCC 12457): 500 µM | MIC ([1]; ATCC19606, A. baumannii ATCC 19606): 1000 µM | MIC of EDTA in combination with NCL195 ([2]; K. pneumoniae ATCC 4352): 10000 µM | MIC of EDTA in combination with NCL195 ([2]; K. pneumoniae ATCC 33495): 10000 µM | MIC ([2]; ATCC4352, K. pneumoniae ATCC 4352): > 30000 µM | MIC ([2]; ATCC33495, K. pneumoniae ATCC 33495): > 30000 µM | MIC of EDTA in combination with NCL195 ([3]; E. coli ATCC 11229, with NCL195 8 μg/ml): 625 µM | MIC of EDTA in combination with NCL195 ([3]; E. coli ATCC 25922, with NCL195 4 μg/ml): 2500 µM | MIC ([3]; ATCC11229, E. coli ATCC 11229): 2500 µM | MIC ([3]; ATCC25922, E. coli ATCC 25922): 10000 µM | MIC of EDTA in combination with NCL195 ([4]; P. aeruginosa ATCC 27853, with NCL195 2 μg/ml): 5000 µM | MIC of EDTA in combination with NCL195 ([4]; P. aeruginosa PA01, with NCL195 0.25 μg/ml): 1250 µM | MIC ([4]; ATCC27853, P. aeruginosa ATCC 27853): 10000 µM | MIC ([4]; P. aeruginosa PA01): 2500 µM

Polymyxin B sulfate
MIC, agent alone ([1]; A. baumannii ATCC 12457): 0.5 µg/mL | MIC of polymyxin B in combination with NCL195 ([1]; A. baumannii ATCC 12457): 0.125 µg/mL | MIC, agent alone ([1]; A. baumannii ATCC 19606): 0.5 µg/mL | MIC of polymyxin B in combination with NCL195 ([1]; A. baumannii ATCC 19606): 0.125 µg/mL | MIC, agent alone ([2]; K. pneumoniae ATCC 4352): 0.25 µg/mL | MIC of polymyxin B in combination with NCL195 ([2]; K. pneumoniae ATCC 4352, with NCL195 0.5 μg/ml): 0.125 µg/mL | MIC, agent alone ([2]; K. pneumoniae ATCC 33495): 0.25 µg/mL | MIC of polymyxin B in combination with NCL195 ([2]; K. pneumoniae ATCC 33495, with NCL195 0.25 μg/ml): 0.125 µg/mL | MIC, agent alone ([3]; E. coli ATCC 11229): 0.25 µg/mL | MIC of polymyxin B in combination with NCL195 ([3]; E. coli ATCC 11229): 0.125 µg/mL | MIC, agent alone ([3]; E. coli ATCC 25922): 0.25 µg/mL | MIC of polymyxin B in combination with NCL195 ([3]; E. coli ATCC 25922): 0.125 µg/mL | MIC, agent alone ([4]; P. aeruginosa ATCC 27853): 0.5 µg/mL | MIC of polymyxin B in combination with NCL195 ([4]; P. aeruginosa ATCC 27853): 0.125 µg/mL | MIC, agent alone ([4]; P. aeruginosa PA01): 0.5 µg/mL | MIC of polymyxin B in combination with NCL195 ([4]; P. aeruginosa PA01): 0.125 µg/mL
